Measured values reported in article PMC12703428, “Development of Granzyme A Turn‐ON Fluorescent Activity‐Based Probes” (Chembiochem, 2025).
Square brackets hold non-standard residues; d marks the D form. Ends that are not written are not given here. Oic = O=C(O)[C@@H]1C[C@@H]2CCCC[C@@H]2N1; Tic = O=C(O)[C@@H]1Cc2ccccc2CN1

Columns and labels:
GzmK = biological target: T1, GzmK (Homo sapiens, UniProt P49863); test: Cross-reactivity labeling, GzmK; format: biochemical; details: GzmK 100 nM, probe 10-100 nM, 2 h, 37 °C, in-gel fluorescence
T1 sequence (P49863 27-264): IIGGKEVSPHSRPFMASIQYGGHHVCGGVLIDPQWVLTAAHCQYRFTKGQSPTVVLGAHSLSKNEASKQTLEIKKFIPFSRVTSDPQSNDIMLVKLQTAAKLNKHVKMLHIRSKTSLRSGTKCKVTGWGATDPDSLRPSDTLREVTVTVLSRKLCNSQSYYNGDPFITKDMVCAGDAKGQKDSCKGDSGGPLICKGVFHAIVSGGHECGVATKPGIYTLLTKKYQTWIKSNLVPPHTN
Description: Protease (100 nM) HNE PR3 GzmK GzmA
Protease (100 nM) GzmA GzmK
Supplementary Figure 2. Cross-reactivity of probes. (A) Labeling of GzmA, GzmK, PR3, and HNE
(100 nM, 2 h, 37 °C) by 100 nM of 5 and 6. (B) Labeling of GzmA and GzmK (100 nM, 2 h, 37 °C) by
100 nM of 3 – 6. (C) Concentration-dependent labeling of GzmA and GzmK (100 nM, 2 h, 37 °C) by 5 and
6. Protein samples were analyzed by SDS-PAGE and in-gel fluorescence scanning for Cy5 signal.
Protein loading was confirmed by SYPRO Ruby staining. […]

[1] = Stability of probes in buffer and cell media (hydrolysis by Cy5 signal); format: physicochemical; details: cell culture media, 11 h incubation, 37 °C, read-out production of Cy5 fluorescence signal, mean ± SD n = 3
Description: Figure 4 Characterization of qABPs in native proteomes. A) Labeling of GzmA by 5 and 6 in lysates of various cell lines (1 h, 37 °C). B) Stability of 5 and 6 in buffer and cell media (11 h, 37 °C). The hydrolysis of probes was measured by monitoring the production of Cy5 fluorescence signal over time. […] C) Labeling of GzmA by probes 3 –6 in NK‐92 cells (2 h, 37 °C). D) Flow cytometry analysis of protein labeling in NK‐92 cells by 3 –5. […] E) Flow cytometry analysis of concentration‐dependent GzmA labeling in NK‐92 cells and S/N of 5 (5 μM, 2 h, 37 °C). […] F) Flow cytometry analysis of protein labeling by 5 in MDA‐MB‐231 cells co‐cultured with NK‐92 cells (see Supporting Information for conditions). […] TEXT PRINTED IN THE PICTURE: (E) qABP 5: S/N = 4

| Substance | Labeling of GzmK (cross-reactivity) (GzmK) | Hydrolysis of probe [1] |
| --- | --- | --- |
| IGNR [compound 5] | labeling was significantly weaker than for GzmA and required considerably higher probe concentrations |  |
| [Tic]G[Oic]R [compound 6] | labeling was significantly weaker than for GzmA and required considerably higher probe concentrations | ≈ 20% |
